Test results as given in PMC11910321, “Evolutionary scenarios for the specific recognition of nonhomologous endogenous peptides by G protein–coupled receptor paralogs” (The Journal of Biological Chemistry, 2024).
Values joined by “and” are separate entries in the source; they are usually repeats but may differ in a detail not shown here. Identical values can stand only once. No end group written: not given here.

Tests used:
Format in all cases: cell-based
[1] = target: T1, (L1.35P, I3.24F, W4.61G)-MRGPRX1 (Homo sapiens, UniProt Q96LB2, I94F/L30P/W158G); assay: Intracellular Ca2+ mobilization in COS-7 cells, Gαq16-fused receptor, (L1.35P, I3.24F, W4.61G)-MRGPRX1
T1 construct: host or cells: COS-7
Source text: (§1) ORFs of MRGPRX1 and MRGPRX2 purchased from OriGene and Mm-MRGPRX1 synthesized in Genscript were C-terminally fused with the human Gαq16 protein as described previously ([23]). Briefly, the human Gαq16 ORF clone (OriGene) was amplified and ligated into the XbaI site of a pcDNA6 plasmid (Invitrogen). Then, MRGPRX1 and MRGPRX2 were subcloned (Table S1) into the NotI–XbaI site of the Gαq16-ligated pcDNA6 plasmids. MRGPRX1 and two mutants were constructed using the PrimeSTAR Mutagenesis Basal Kit with mutation oligos (Table S1).
(§2) COS-7 cells were purchased from American Type Culture Collection and cultured in Dulbecco's modified Eagle's medium (Nacalai Tesque) supplemented with 10% fetalbovine serum (Sigma) and maintained at 37°C under 5% CO2. Intracellular Ca^2+ mobilization was measured as previously described ([42], [43]). In brief, 5 × 10^5 COS-7 cells were spread on a 60-mm dish 1 day before transfection. About 10 μg of GPCR expression vector were transfected into the cells using Lipofectamine 2000 (Thermo Fisher Scientific) according to the manufacturer’s instructions. After the 24-h incubation, 6 × 10^4 cells per well were respread on a 96-well plate for the following assay. Each MRGPRX mutant fused with human Gαq16 for expression at the cell membrane was confirmed by immunostaining using the anti-Gαq16 antibody (Ori Gene TA318890) (Fig. S5). SP (PEPTIDE […]) and BAM8–22 (Tocris Bioscience) were used for the assays. Real-time Ca^2+ mobilization of Gαq16-fused MRGPRX1/2 was measured using a Ca5 kit (Molecular Devices) and FlexStation III according to the manufacturer’s instructions. The calcium accumulation data were analyzed using Prism, version 6 (GraphPad) and found to fit a sigmoidal concentration–response curve, and the means ± SEMs of EC50 were calculated.

(I3.24F, W4.61G)-MRGPRX1 = target: T2, (I3.24F, W4.61G)-MRGPRX1 (Homo sapiens, UniProt Q96LB2, I94F/W158G); assay: Intracellular Ca2+ mobilization in COS-7 cells, Gαq16-fused receptor, (I3.24F, W4.61G)-MRGPRX1
T2 construct: host or cells: COS-7
Source text: as §1, §2

[2] = target: (I3.24F, W4.61G)-Mm-MRGPRX1 (Macaca mulatta, UniProt A0A5F7ZSN8, I94F/W158G); assay: Intracellular Ca2+ mobilization in COS-7 cells, Gαq16-fused receptor, (I3.24F, W4.61G)-Mm-MRGPRX1; details: SP
Source text: as §1
(§3) COS-7 cells were purchased from American Type Culture Collection and cultured in Dulbecco's modified Eagle's medium (Nacalai Tesque) supplemented with 10% fetalbovine serum (Sigma) and maintained at 37°C under 5% CO2. Intracellular Ca^2+ mobilization was measured as previously described ([42], [43]). In brief, 5 × 10^5 COS-7 cells were spread on a 60-mm dish 1 day before transfection. […] Real-time Ca^2+ mobilization of Gαq16-fused MRGPRX1/2 was measured using a Ca5 kit (Molecular Devices) and FlexStation III according to the manufacturer’s instructions. The calcium accumulation data were analyzed using Prism, version 6 (GraphPad) and found to fit a sigmoidal concentration–response curve, and the means ± SEMs of EC50 were calculated.

(P1.35L)-MRGPRX2 = target: T3, (P1.35L)-MRGPRX2 (Homo sapiens, UniProt Q96LB1, P33L); assay: Intracellular Ca2+ mobilization in COS-7 cells, Gαq16-fused receptor, (P1.35L)-MRGPRX2; details: COS-7, Ca2+ mobilization
T3 construct: host or cells: COS-7
T3 sequence (Q96LB1 1-330 P33L): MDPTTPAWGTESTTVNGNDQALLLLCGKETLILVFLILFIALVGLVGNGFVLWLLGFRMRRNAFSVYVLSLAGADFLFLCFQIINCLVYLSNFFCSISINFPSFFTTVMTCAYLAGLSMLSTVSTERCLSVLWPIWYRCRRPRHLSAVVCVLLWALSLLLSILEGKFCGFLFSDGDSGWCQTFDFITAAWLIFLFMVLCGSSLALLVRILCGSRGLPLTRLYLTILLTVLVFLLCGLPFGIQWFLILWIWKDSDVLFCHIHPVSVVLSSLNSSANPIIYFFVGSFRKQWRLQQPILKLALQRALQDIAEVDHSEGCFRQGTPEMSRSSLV
Method: COS-7 cells were purchased from American Type Culture Collection and cultured in Dulbecco's modified Eagle's medium (Nacalai Tesque) supplemented with 10% fetalbovine serum (Sigma) and maintained at 37°C under 5% CO2. Intracellular Ca^2+ mobilization was measured as previously described ([42], [43]). In brief, 5 × 10^5 COS-7 cells were spread on a 60-mm dish 1 day before transfection. About 10 μg of GPCR expression vector were transfected into the cells using Lipofectamine 2000 (Thermo Fisher Scientific) according to the manufacturer’s instructions. After the 24-h incubation, 6 × 10^4 cells per well were respread on a 96-well plate for the following assay. […] Real-time Ca^2+ mobilization of Gαq16-fused MRGPRX1/2 was measured using a Ca5 kit (Molecular Devices) and FlexStation III according to the manufacturer’s instructions. The calcium accumulation data were analyzed using Prism, version 6 (GraphPad) and found to fit a sigmoidal concentration–response curve, and the means ± SEMs of EC50 were calculated.

MRGPRX1 WT = target: T4, MRGPRX1 WT (Homo sapiens, UniProt Q96LB2); assay: Intracellular Ca2+ mobilization in COS-7 cells, Gαq16-fused receptor, wildtype MRGPRX1; details: BAM8–22
T4 construct: host or cells: COS-7
Source text: as §1, §3

(L1.35P)-MRGPRX1 = target: T5, (L1.35P)-MRGPRX1 (Homo sapiens, UniProt Q96LB2, L30P); assay: Intracellular Ca2+ mobilization in COS-7 cells, Gαq16-fused receptor, (L1.35P)-MRGPRX1
T5 construct: host or cells: COS-7
Source text: as §1, §3

(S1.43A)-MRGPRX1 = target: T6, (S1.43A)-MRGPRX1 (Homo sapiens, UniProt Q96LB2, S38A); assay: Intracellular Ca2+ mobilization in COS-7 cells, Gαq16-fused receptor, (S1.43A)-MRGPRX1; details: BAM8–22
T6 construct: host or cells: COS-7
Source text: as §1, §3

Mm-MRGPRX1 WT = target: T7, Mm-MRGPRX1 WT (Macaca mulatta, UniProt A0A5F7ZSN8); assay: Intracellular Ca2+ mobilization in COS-7 cells, Gαq16-fused receptor, intact Mm-MRGPRX1; details: BAM8–22
T7 construct: host or cells: COS-7
Source text: as §1, §3

(F1.35L)-Mm-MRGPRX1 = (F1.35L)-Mm-MRGPRX1 (Macaca mulatta, UniProt A0A5F7ZSN8, F30L); assay: Intracellular Ca2+ mobilization in COS-7 cells, Gαq16-fused receptor, (F1.35L)-Mm-MRGPRX1; details: BAM8–22; COS-7, Ca2+ mobilization; mean ± standard error of three replicate analyses; read-out: Maximal response
Source text: as §1, §3

[3] = COS-7, SP, compared with intact MRGPRX2, mean ± standard error of three replicate analyses, read-out: Maximal response (Emax)
[4] = SP, COS-7, Gαq16-fused, Ca2+ mobilization, three replicate analyses
[5] = COS-7, Ca2+ mobilization, mean ± standard error of three replicate analyses, read-out: Maximal response
[6] = COS-7, Gαq16-fused, Ca2+ mobilization, three replicate analyses

T2 sequence (Q96LB2 whole entry I94F/W158G, the tested form may be a part): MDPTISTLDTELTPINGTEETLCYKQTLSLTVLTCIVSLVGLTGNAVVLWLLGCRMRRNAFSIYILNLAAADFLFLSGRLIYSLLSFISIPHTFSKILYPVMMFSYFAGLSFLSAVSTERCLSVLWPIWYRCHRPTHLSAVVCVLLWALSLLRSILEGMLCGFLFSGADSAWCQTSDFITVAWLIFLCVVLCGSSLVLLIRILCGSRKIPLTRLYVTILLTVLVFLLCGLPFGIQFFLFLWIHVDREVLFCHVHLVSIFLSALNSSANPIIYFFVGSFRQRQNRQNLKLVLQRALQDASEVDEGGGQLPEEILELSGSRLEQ
T1 sequence (Q96LB2 whole entry L30P/I94F/W158G, the tested form may be a part): as the sequence (Q96LB2 whole entry I94F/W158G, the tested form may be a part) above, with L30P counted along it
(I3.24F, W4.61G)-Mm-MRGPRX1, sequence (A0A5F7ZSN8 1-322 I94F/W158G): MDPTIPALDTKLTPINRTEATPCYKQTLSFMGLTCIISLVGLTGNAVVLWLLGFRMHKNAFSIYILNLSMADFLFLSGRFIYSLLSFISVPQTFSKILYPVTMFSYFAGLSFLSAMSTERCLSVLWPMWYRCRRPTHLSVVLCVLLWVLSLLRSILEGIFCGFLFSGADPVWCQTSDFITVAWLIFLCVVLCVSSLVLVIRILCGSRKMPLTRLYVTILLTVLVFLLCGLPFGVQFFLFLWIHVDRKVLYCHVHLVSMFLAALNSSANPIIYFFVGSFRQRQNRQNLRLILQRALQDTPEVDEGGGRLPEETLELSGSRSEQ
T7 sequence (A0A5F7ZSN8 1-322): as the sequence (A0A5F7ZSN8 1-322 I94F/W158G) above, with F94I, G158W counted along it
T6 sequence (Q96LB2 whole entry S38A, the tested form may be a part): as the sequence (Q96LB2 whole entry I94F/W158G, the tested form may be a part) above, with S38A, F94I, G158W counted along it
T4 sequence (Q96LB2 whole entry, the tested form may be a part): as the sequence (Q96LB2 whole entry I94F/W158G, the tested form may be a part) above, with F94I, G158W counted along it
T5 sequence (Q96LB2 whole entry L30P, the tested form may be a part): as the sequence (Q96LB2 whole entry I94F/W158G, the tested form may be a part) above, with L30P, F94I, G158W counted along it
(F1.35L)-Mm-MRGPRX1, sequence (A0A5F7ZSN8 1-322 F30L): as the sequence (A0A5F7ZSN8 1-322 I94F/W158G) above, with F30L, F94I, G158W counted along it

Row | Response to 3 μM BAM8–22 ((P1.35L)-MRGPRX2) [%] | Emax (MRGPRX1 WT; [5]) [%] | EC50 (MRGPRX1 WT; [6]) [µM] | Response to 3 μM BAM8–22, of that of wildtype MRGPRX1 ((L1.35P)-MRGPRX1; 3 μM BAM8–22, COS-7, Ca2+ mobilization) [%] | EC50 ((L1.35P)-MRGPRX1; BAM8–22, COS-7, Gαq16-fused, Ca2+ mobilization, three replicate analyses) [µM] | Emax ((S1.43A)-MRGPRX1; [5]) [%] | EC50 ((S1.43A)-MRGPRX1; [6]) [µM] | Emax (Mm-MRGPRX1 WT; [5]) [%] | EC50 (Mm-MRGPRX1 WT; [6]) [µM] | Emax ((F1.35L)-Mm-MRGPRX1) [%] | Compound | EC50 compared with MRGPRX2-SP (in words) ([1]; COS-7, Ca2+ mobilization) | Emax [1, 3] [%] | EC50 [1, 4] [µM] | EC50 compared with MRGPRX2-SP (in words) ((I3.24F, W4.61G)-MRGPRX1; COS-7, Ca2+ mobilization) | Emax ((I3.24F, W4.61G)-MRGPRX1; [3]) [%] | EC50 ((I3.24F, W4.61G)-MRGPRX1; [4]) [µM] | Emax [2, 5] [%] | EC50 [2, 6]
1 |  |  |  |  |  |  |  |  |  |  | CSCC[C@H](NC(=O)[C@H](CC(C)C)NC(=O)CNC(=O)[C@H](Cc1ccccc1)NC(=O)[C@H](Cc1ccccc1)NC(=O)[C@H](CCC(N)=O)NC(=O)[C@H](CCC(N)=O)NC(=O)[C@@H]1CCCN1C(=O)[C@H](CCCCN)NC(=O)[C@@H]1CCCN1C(=O)[C@@H](N)CCCNC(=N)N)C(N)=O [SP, substance P] | comparable to that of MRGPRX2-SP | 39.5 ± 3 | 1.66 | comparable to that of MRGPRX2-SP | 42.1 ± 2.28 | 2.24 | 100 ± 5.28 | 0.2 µM and 0.69 µM
2 | 30.23 ± 1.08 | 100 ± 7.78 | 0.17 | 48.48 ± 1.08 | 3.16 | 102 ± 9.64 | 0.2 | 66.5 ± 2.91 | 2.57 | 100 ± 1.94 | VGRPEWWMDYQKRYG [BAM8–22, bovine adrenal medulla peptide 8–22] |  |  |  |  |  |  |  | 
